Measurements: paper PMC6270420, “Antibacterial Activity of Salicylanilide 4-(Trifluoromethyl)benzoates” (Molecules, 2013)
In brackets after ≈: the same amount, converted by molar mass. Like-named read-outs stand apart in the source and are kept apart here.

How the values were obtained:
[1] = test system: Mycobacterium kansasii 235/80; test: Antimycobacterial MIC micromethod; assay type: cell-based; details: read-out: MIC M. kansasii 235/80
[2] = test system: M. kansasii 6509/96 (clinically isolated strain); test: Antimycobacterial MIC micromethod; assay type: cell-based; details: Mycobacterium kansasii, read-out: MIC M. kansasii 6509/96
Mtb. 7357/1988 = test: microbe, parasite or virus in culture; assay type: cell-based; details: Mycobacterium tuberculosis, read-out: MIC Mtb. 7357/1988
Mtb. 53/2009 = test: microbe, parasite or virus in culture; assay type: cell-based; details: Mycobacterium tuberculosis, read-out: MIC Mtb. 53/2009
Mtb. 234/2005 = test: microbe, parasite or virus in culture; assay type: cell-based; details: Mycobacterium tuberculosis, read-out: MIC Mtb. 234/2005
Mtb. Praha 1 = test: microbe, parasite or virus in culture; assay type: cell-based; details: Mycobacterium tuberculosis, read-out: MIC Mtb. Praha 1
Mtb. Praha 131 (XDR-TB) = test: microbe, parasite or virus in culture; assay type: cell-based; details: Mycobacterium tuberculosis, read-out: MIC Mtb. Praha 131 (XDR-TB)
[3] = molecular target: T1, mycobacterial isocitrate lyase (ICL1, Rv0467) (Mycobacterium tuberculosis, UniProt P9WKK7); test: Isocitrate lyase inhibition assay (ICL1); assay type: biochemical, Mycobacterium tuberculosis H37Rv; details: 10 μmol/L; read-out: % ICL inhibition at 10 μmol/L (± standard deviation)
T1 construct: His tag (from pET-28b(+)); made in house; host or cells: E. coli BL21(DE3), pET-28b(+) plasmid
T1 sequence (P9WKK7 1-428): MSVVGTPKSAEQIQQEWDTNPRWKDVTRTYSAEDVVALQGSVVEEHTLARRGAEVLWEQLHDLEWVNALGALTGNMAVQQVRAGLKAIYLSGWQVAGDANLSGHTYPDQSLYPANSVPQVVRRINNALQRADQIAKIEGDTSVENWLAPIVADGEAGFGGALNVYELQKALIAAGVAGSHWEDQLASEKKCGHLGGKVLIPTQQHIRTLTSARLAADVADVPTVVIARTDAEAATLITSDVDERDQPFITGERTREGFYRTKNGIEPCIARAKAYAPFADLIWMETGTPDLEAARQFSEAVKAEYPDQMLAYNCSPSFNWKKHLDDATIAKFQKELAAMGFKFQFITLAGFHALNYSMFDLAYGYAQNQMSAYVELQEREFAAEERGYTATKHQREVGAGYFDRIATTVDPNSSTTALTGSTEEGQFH

[4] = test system: Gram-positive cocci including MRSA; test: Antibacterial microdilution, summary for Gram-positive cocci; assay type: cell-based; details: Staphylococcus aureus, read-out: MICs against Gram-positive cocci
Experimental: The in vitro antibacterial activity was assayed against eight Gram-positive and Gram-negative strains: Staphylococcus aureus CCM 4516/08, methicillin-resistant Staphylococcus aureus H 5996/08 (MRSA), Staphylococcus epidermidis H 6966/08, Enterococcus sp. J 14365/08; Escherichia coli CCM 4517, Klebsiella pneumoniae D 11750/08, ESBL-positive Klebsiella pneumoniae J 14368/08, and Pseudomonas aeruginosa CCM 1961.
The microdilution broth method modified according to standard M07-A07 in Mueller-Hinton broth (HiMedia Laboratories, Mumbai, India) adjusted to pH 7.4 (±0.2) was used. The tested compounds were dissolved in DMSO to the final concentrations ranging from […]. Benzylpenicillin (penicillin G) was used as a comparative drug. Bacterial inoculum in sterile water was prepared to match 0.5 McFarland scale ([…]). The minimum inhibitory concentrations were assayed as 90% (IC90) or higher reduction of growth when compared to the control. The determination of results was performed visually and spectrophotometrically (at 540 nm). The values of MICs were determined after 24 and 48 h of incubation in the darkness at 35 °C (±0.1) in a humid atmosphere.

[5] = test system: Mycobacterium tuberculosis, M. avium and M. kansasii; test: Antimycobacterial MIC, summary over all mycobacterial strains; assay type: cell-based; details: range over all strains and times; read-out: MICs against all mycobacterial strains

Row | SMILES | MIC ([1]; 235/80, 168 h, 7 d) [µM] | MIC ([1]; 235/80, 336 h, 14 d) [µM] | MIC ([1]; 235/80, 504 h, 21 d) [µM] | MIC ([2]; 168 h, 7 d) [µM] | MIC ([2]; 336 h, 14 d) [µM] | MIC ([2]; 504 h, 21 d) [µM] | MIC (Mtb. 7357/1988; 336 h) [µM] | MIC (Mtb. 7357/1988; 504 h) [µM] | MIC (Mtb. 53/2009; 336 h) [µM] | MIC (Mtb. 53/2009; 504 h) [µM] | MIC (Mtb. 234/2005; 336 h) [µM] | MIC (Mtb. 234/2005; 504 h) [µM] | MIC (Mtb. Praha 1; 336 h) [µM] | MIC (Mtb. Praha 1; 504 h) [µM] | MIC (Mtb. Praha 131 (XDR-TB); 336 h) [µM] | MIC (Mtb. Praha 131 (XDR-TB); 504 h) [µM] | inhibition at 10 µM [3] [%] | MIC [4] [µM] | MIC [5] [µM]
1 | O=C(Oc1ccc(Cl)cc1C(=O)Nc1ccc(Cl)c(Cl)c1)c1ccc(C(F)(F)F)cc1 [1e] | 1 (≈ 0.489 µg/mL) | 2 (≈ 0.977 µg/mL) | 4 (≈ 1.95 µg/mL) | 1 (≈ 0.489 µg/mL) | 2 (≈ 0.977 µg/mL) | 4 (≈ 1.95 µg/mL) | 1 (≈ 0.489 µg/mL) | 2 (≈ 0.977 µg/mL) | 2 (≈ 0.977 µg/mL) | 4 (≈ 1.95 µg/mL) | 1 (≈ 0.489 µg/mL) | 2 (≈ 0.977 µg/mL) | 1 (≈ 0.489 µg/mL) | 2 (≈ 0.977 µg/mL) | 2 (≈ 0.977 µg/mL) | 2 (≈ 0.977 µg/mL) | 18 ± 1.5 | < 1 | –
2 | O=C(Oc1cc(Cl)ccc1C(=O)Nc1ccc(Br)cc1)c1ccc(C(F)(F)F)cc1 [1j] | 1 (≈ 0.499 µg/mL) | 4 (≈ 1.99 µg/mL) | 4 (≈ 1.99 µg/mL) | 2 (≈ 0.997 µg/mL) | 4 (≈ 1.99 µg/mL) | 4 (≈ 1.99 µg/mL) | 2 (≈ 0.997 µg/mL) | 2 (≈ 0.997 µg/mL) | 2 (≈ 0.997 µg/mL) | 2 (≈ 0.997 µg/mL) | 2 (≈ 0.997 µg/mL) | 2 (≈ 0.997 µg/mL) | 2 (≈ 0.997 µg/mL) | 2 (≈ 0.997 µg/mL) | 1 (≈ 0.499 µg/mL) | 2 (≈ 0.997 µg/mL) | 14 ± 4 | < 1 | –
3 | O=C(Oc1ccc(Cl)cc1C(=O)Nc1ccc(C(F)(F)F)cc1)c1ccc(C(F)(F)F)cc1 [1o, 4-chloro-2-[4-(trifluoromethyl)phenylcarbamoyl]phenyl 4-(trifluoromethyl)benzoate] | 1 (≈ 0.488 µg/mL) | 2 (≈ 0.976 µg/mL) | 2 (≈ 0.976 µg/mL) | 1 (≈ 0.488 µg/mL) | 2 (≈ 0.976 µg/mL) | 2 (≈ 0.976 µg/mL) | 0.5 (≈ 0.244 µg/mL) | 1 (≈ 0.488 µg/mL) | 1 (≈ 0.488 µg/mL) | 1 (≈ 0.488 µg/mL) | 0.5 (≈ 0.244 µg/mL) | 1 (≈ 0.488 µg/mL) | 0.5 (≈ 0.244 µg/mL) | 0.5 (≈ 0.244 µg/mL) | 0.5 (≈ 0.244 µg/mL) | 1 (≈ 0.488 µg/mL) | 13 ± 1.2 | – | 1 to 4 (≈ 0.488 to 1.95 µg/mL)
